Article PMC10401570, “Programmable Monodisperse Glyco-Multivalency Using Self-Assembled Coordination Cages as Scaffolds” (ACS Applied Materials & Interfaces, 2023)

Biological target: Jacalin (Artocarpus integer, UniProt P18670)
Assay: competition turbidimetry: free galactose blocks lectin aggregation by galactose cage Co4Gal ([…] against Co8Gal)
Assay type: binding

Jacalin, sequence (P18670 whole entry): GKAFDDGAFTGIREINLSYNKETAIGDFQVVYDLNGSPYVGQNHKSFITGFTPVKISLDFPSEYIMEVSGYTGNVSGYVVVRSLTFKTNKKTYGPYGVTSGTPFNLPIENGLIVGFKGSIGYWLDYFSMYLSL
Jacalin, sequence (P18671 whole entry partner): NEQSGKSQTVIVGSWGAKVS

## OC[C@H]1OC(O)[C@H](O)[C@@H](O)[C@H]1O (stereo partly drawn) [D-galactose]
  IC50: 30 mM
